Molecules are shown by their SMILES.

For assay [1], the system named is oxazolone-induced atopic contact dermatitis. Description: Atopic contact dermatitis, therapeutic protocol (R2C2). It counts as in vivo, mice. An excerpt: A murine model of atopic contact dermatitis induced with oxazolone in mice was used to determine the anti-inflammatory effect of the whey fermented with Lactobacillus kefiranofaciens […]. This model of inflammation has proven to be a sensitive and useful tool to determine efficacy and potency of several anti-inflammatory and immunosuppressive drugs used in dermatological disorders like psoriasis for example. Drugs like glucocorticoids are commonly used to relieve skin and joint inflammation. Whey fermented with […] administered orally either in a prophylactic (Table 24) or therapeutic fashion (Table 23) reduced the inflammation as shown with a reduction of around 30% of ear and thickness in both cases. In more details, the murine model of atopic contact dermatitis was based on those firstly described by Garrigue et al. (Contact Dermatitis., 30(4):[…], 1994) and modified as follows: the CD-1 mice's abdomen were removed of hair and the sensitization phase was done with the application of 100 microliters of oxazolone 5% in acetone on the abdomen (Sigma-Aldrich, Oakville, On). After 4 days, the elicitation phase (first challenge) was done with application of 50 microliters of oxazolone 5% in acetone on the right ear (25 microliters each side of the ear). The second challenge was done 7 days after the first challenge with the same procedure. The ear thickness of the mice was measured every day. The therapeutic anti-inflammatory potential of […] was evaluated in an animal model of atopic contact dermatitis by feeding the bacterial suspension after the first challenge. The protective effect of […] was compared to that of hydrocortisone, because of its well-known anti-inflammatory effects on dermatitis.

The test system is the same in assay [2]. As to the kind of experiment: Atopic contact dermatitis, therapeutic protocol (MPM). The format is in vivo, CD-1 mice. The following applies: Treatment of atopic contact dermatitis (day 17); Controls 0.55. An excerpt:
(§1) A murine model of atopic contact dermatitis induced with oxazolone in mice was used to determine the anti-inflammatory effect of the whey fermented with Lactobacillus kefiranofaciens […]. This model of inflammation has proven to be a sensitive and useful tool to determine efficacy and potency of several anti-inflammatory and immunosuppressive drugs used in dermatological disorders like psoriasis for example. Drugs like glucocorticoids are commonly used to relieve skin and joint inflammation. Whey fermented with […] administered orally either in a prophylactic (Table 24) or therapeutic fashion (Table 23) reduced the inflammation as shown with a reduction of around 30% of ear and thickness in both cases. […] The ear thickness of the mice was measured every day. The prophylactic anti-inflammatory potential of MPM (patent PCT/CA2002/01988) was evaluated firstly by the administration of MPM, 7 days prior to sensitization. […] Dermatitis was induced as described previously and ear thickness was measured every day. The therapeutic anti-inflammatory potential of MPM was evaluated by the administration of MPM only after the first challenge. […] The mouse atopic contact dermatitis was done as described previously and ear thickness was measured every day. The mice's weight was measured twice a week.

Assay [3] has the same test system. As to the kind of experiment: Atopic contact dermatitis, prophylactic protocol (MPM). It counts as in vivo, CD-1 mice. The following applies: Protection against atopic contact dermatitis (day 9); Controls 0.45.
Text: as §1

Assay [4] deals with DSS-induced intestinal inflammation. Description: Effect of live, pasteurized or irradiated bacteria on DSS intestinal inflammation. It counts as in vivo, C57BL/6 mice. The method, then: C57BL/6 mice were treated by gavage (p.o.) with 10^8 cfu/ml of different L. kefiranofaciens strains once per day for the duration of the experiment. Animals received the strains R2C2 or BioSP as live, pasteurized or irradiated bacteria. Intestinal inflammation was induced by the addition of DSS (2.5%) to the drinking water for 8 days and then replaced with fresh water for 8 days to evaluate the rapidity of recovery process from inflammation for the different treatment groups. The level and progression of inflammation was evaluated through measurements of weight variation and combined scores of diarrhea and occult blood. Colon length and myeloperoxidase (MPO) activity in the colon were also evaluated at the end of the experiment.

For assay [5], the system named is systolic blood pressure of SHR rats. Description: Anti-hypertensive potential in SHR rats (tail-cuff SBP). It counts as in vivo, SHR female rats. The method, then: Anti-hypertensive potential of whey fermented with […] (MPM) was evaluated by using SHR female rats (6 weeks old). 12 rats were randomized according to their weight in each treatment group. They were housed under specific pathogen-free conditions and maintained in a 12 hour-light/dark cycle. All animals consumed standard diet and received water ad libitum. Groups were forced-fed daily either 1 mL of water (placebo group), MPM (5 mL/kg) or Enalapril-malate (10 mg/kg), because of its well-known hypotensive effects. Systolic blood pressure (SBP) was measured weekly by the tail-cuff method with the automated RTBP2000 Tail Blood Pressure system (Kent Scientific, Torrington, Conn., USA). Data collections were made weekly and an average of 3 measurements was taken as initial mean SBP. Data was acquired and analysed with Biopac Student Lab Pro® software version 3.6.1 (Biopac System, Goleta, Calif., USA). […] A steady decrease of the SBP was observed every week with a maximum change of at least 25% at week 4 for the animals forced-fed with MPM.

As for `C[C@]12CCC(=O)C=C1CC[C@@H]1[C@@H]2[C@@H](O)C[C@@]2(C)[C@H]1CC[C@]2(O)C(=O)CO` [Hydrocortisone, hydrocortisone], the “ear thickness (mm)” value in assay [1] (Day 15, Controls 0.26) is on record as 0.18 mm; in assay [1] (Day 17, Controls 0.39) it was 0.27 mm; in assay [1] (Day 22, Controls 0.34), 0.15 mm. For the same molecule, the “Ear thickness (mm)” value in assay [2] stood at 0.29 mm; in assay [3] it was 0.30 mm.
As to `Nc1ccc(O)c(C(=O)O)c1` [5-ASA], the “Weight loss (%) associated with 8 days of DSS exposure” value is −3.21% in assay [4] (Day 5, DSS+saline −1.83); −3.64% in assay [4] (Day 6, DSS+saline −5.23); −5.90% in assay [4] (Day 7, DSS+saline −8.79); −8.07% in assay [4] (Day 8, DSS+saline −13.5). Further, the “Combined occult blood and diarrhea scores (scale of 8)” value in assay [4] (Day 5 of DSS, DSS+saline 2.25) was determined as 1.75; in assay [4] (Day 6 of DSS, DSS+saline 4.50), 3.75; in assay [4] (Day 7 of DSS, DSS+saline 6.50), 4.25; in assay [4] (Day 8 of DSS, DSS+saline 6.50), 5.50. In addition, the “MPO activity (U/g of tissue)” value in assay [4] (colon, post-mortem, 8 days DSS and 8 days of recovery, no DSS 0.056, DSS+saline 0.226) is given as 0.043 U/g of tissue. Also, in assay [4] (live, pasteurized or irradiated bacteria, 5-ASA comparator), the “Protective effect on DSS inflammation” value is “comparable protective effects”.
Take `CCOC(=O)[C@H](CCc1ccccc1)N[C@@H](C)C(=O)N1CCC[C@H]1C(=O)O` [Enalapril, Enalapril-malate]: the “Systolic blood pressure (mm Hg)” value in assay [5] (Week 0, Controls 185) turned out to be 184 mm Hg; in assay [5] (Week 1, Controls 181), 165 mm Hg; in assay [5] (Week 2, Controls 184) it was 156 mm Hg; in assay [5] (Week 3, Controls 183), 154 mm Hg; in assay [5] (Week 4, Controls 187) it was 154 mm Hg.

Source of the values: patent US20140193383A1, “USE OF LACTOBACILLUS KEFIRANOFACIENS AS A PROBIOTIC AND A SYNBIOTIC” (Technologies Biolactis Inc., priority 2005, published 2014).
